According to US8889676B2, “3-ureidoisoquinolin-8-yl derivatives” (Actelion Pharmaceuticals Ltd., priority 2011, dated 2014):
Converted amounts (≈) assume the structure as drawn.

Test system: S. pneumoniae ATCC 49619
Assay: Minimal inhibitory concentration (MIC) by broth microdilution (CLSI M7-A7)
Format: cell-based, Streptococcus pneumoniae
Details: Streptococcus pneumoniae, ATCC49619; cation-adjusted Mueller Hinton Broth supplemented with 3% (v/v) lysed horse blood; microdilution method
Method: Minimal inhibitory concentrations (MICs; mg/l) were determined in cation-adjusted MuellerHinton Broth (supplemented with 3% (v/v) lysed horse blood for testing Streptococcus pneumoniae) by a microdilution method following the description given in “Methods for Dilution Antimicrobial Susceptibility Tests for Bacteria that Grow Aerobically”, Approved standard, 7th ed., a Clinical and Laboratory Standards Institute (CLSI) Document M7-A7, Wayne, Pa., USA, 2006.

Structure (SMILES)	MIC
CCNC(=O)Nc1cc2cccc(CNC(=O)OCc3cccnc3)c2cn1.Cl [Example 33, [3-(3-ethyl-ureido)-isoquinolin-8-ylmethyl]-carbamic acid pyridin-3-ylmethyl ester hydrochloride]	4 µg/mL
CCNC(=O)Nc1cc2cccc(CNC(=O)OCc3ccccn3)c2cn1.Cl [Example 34, [3-(3-ethyl-ureido)-isoquinolin-8-ylmethyl]-carbamic acid pyridin-2-ylmethyl ester hydrochloride]	4 µg/mL
CCNC(=O)Nc1cc2cccc(CNC(=O)OCc3ccn(C)n3)c2cn1.Cl [Example 35, [3-(3-ethyl-ureido)-isoquinolin-8-ylmethyl]-carbamic acid (1-methyl-1H-pyrazol-3-yl)methyl ester hydrochloride]	4 µg/mL
CCNC(=O)Nc1cc2cccc(CNC(=O)OCc3ccccc3)c2cn1.Cl [Example 36, [3-(3-ethyl-ureido)-isoquinolin-8-ylmethyl]-carbamic acid benzyl ester hydrochloride]	4 µg/mL
C#CCOC(=O)N(C)Cc1cccc2cc(NC(=O)NCC)ncc12 [Example 44, [3-(3-ethyl-ureido)-isoquinolin-8-ylmethyl]-methyl-carbamic acid prop-2-ynyl ester]	8 µg/mL (≈ 23.5 µM)
CCNC(=O)Nc1cc2c(-c3ccncc3)ccc(CNC(=O)CC(=O)O)c2cn1 [Example 45, N-[3-(3-ethyl-ureido)-5-pyridin-4-yl-isoquinolin-8-ylmethyl]-malonamic acid]	8 µg/mL (≈ 19.6 µM)
CCNC(=O)Nc1cc2c(-c3ccncc3)ccc(CNC(=O)CCNC(=O)OC(C)(C)C)c2cn1 [Example 49, (2-{[3-(3-ethyl-ureido)-5-pyridin-4-yl-isoquinolin-8-ylmethyl]-carbamoyl}-ethyl)-carbamic acid tert-butyl ester]	0.5 µg/mL (≈ 1.02 µM)
CCNC(=O)Nc1cc2c(-c3ccncc3)ccc(CNC(=O)CCN)c2cn1.Cl [Example 51, 3-amino-N-[3-(3-ethyl-ureido)-5-pyridin-4-yl-isoquinolin-8-ylmethyl]-propionamide hydrochloride]	8 µg/mL
CCNC(=O)Nc1cc2c(-c3ccncc3)ccc(CNC(=O)CC(=O)NC)c2cn1 [Example 53, N-[3-(3-ethyl-ureido)-5-pyridin-4-yl-isoquinolin-8-ylmethyl]-N′-methyl-malonamide]	4 µg/mL (≈ 9.51 µM)
CCNC(=O)Nc1cc2c(-c3ccncc3)ccc(CNC(=O)CCCNC(=O)OC(C)(C)C)c2cn1 [Example 56, (3-{[3-(3-ethyl-ureido)-5-pyridin-4-yl-isoquinolin-8-ylmethyl]-carbamoyl}-propyl)-carbamic acid tert-butyl ester]	1 µg/mL (≈ 1.97 µM)
CCNC(=O)Nc1cc2c(-c3ccncc3)ccc(CNC(=O)CCN(C)C(=O)OC(C)(C)C)c2cn1 [Example 58, (2-{[3-(3-ethyl-ureido)-5-pyridin-4-yl-isoquinolin-8-ylmethyl]-carbamoyl}-ethyl)-methyl-carbamic acid tert-butyl ester]	2 µg/mL (≈ 3.95 µM)
CCNC(=O)Nc1cc2c(-c3ccncc3)ccc(CNC(=O)CC)c2cn1 [Example 59, N-[3-(3-ethyl-ureido)-5-pyridin-4-yl-isoquinolin-8-ylmethyl]-propionamide]	0.5 µg/mL (≈ 1.32 µM)
CCNC(=O)Nc1cc2c(-c3ccncc3)ccc(CNC(=O)CO)c2cn1 [Example 61, N-[3-(3-ethyl-ureido)-5-pyridin-4-yl-isoquinolin-8-ylmethyl]-2-hydroxy-acetamide]	4 µg/mL (≈ 10.5 µM)
CCNC(=O)Nc1cc2c(-c3ccncc3)ccc(CNC(C)=O)c2cn1 [Example 64, N-[3-(3-ethyl-ureido)-5-pyridin-4-yl-isoquinolin-8-ylmethyl]-acetamide]	0.5 µg/mL (≈ 1.38 µM)
C#CCCC(=O)NCc1ccc(-c2ccncc2)c2cc(NC(=O)NCC)ncc12 [Example 69, pent-4-ynoic acid [3-(3-ethyl-ureido)-5-pyridin-4-yl-isoquinolin-8-ylmethyl]-amide]	0.25 µg/mL (≈ 0.623 µM)

Continued, values first:

MIC	Structure (SMILES)
4 µg/mL	CCNC(=O)Nc1cc2cccc(CNC(=O)OCCC#N)c2cn1.Cl [Example 32, [3-(3-ethyl-ureido)-isoquinolin-8-ylmethyl]-carbamic acid 2-cyano-ethyl ester hydrochloride]
4 µg/mL	CCNC(=O)Nc1cc2cccc(CNC(=O)OCCOC)c2cn1.Cl [Example 37, [3-(3-ethyl-ureido)-isoquinolin-8-ylmethyl]-carbamic acid 2-methoxy-ethyl ester hydrochloride]
8 µg/mL	CCNC(=O)Nc1cc2cccc(CNC(=O)OCc3cncn3C)c2cn1.Cl [Example 38, [3-(3-ethyl-ureido)-isoquinolin-8-ylmethyl]-carbamic acid 3-methyl-3H-imidazol-4-ylmethyl ester hydrochloride]
2 µg/mL	CCNC(=O)Nc1cc2cccc(CNC(=O)OCc3cn[nH]c3)c2cn1.Cl [Example 39, [3-(3-ethyl-ureido)-isoquinolin-8-ylmethyl]-carbamic acid 1H-pyrazol-4-ylmethyl ester hydrochloride]
4 µg/mL	C#CCCOC(=O)NCc1cccc2cc(NC(=O)NCC)ncc12.Cl [Example 40, [3-(3-ethyl-ureido)-isoquinolin-8-ylmethyl]-carbamic acid but-3-ynyl ester hydrochloride]
0.25 µg/mL (≈ 0.62 µM)	C#CCOC(=O)NCc1ccc(-c2ccncc2)c2cc(NC(=O)NCC)ncc12 [Example 41, [3-(3-ethyl-ureido)-5-pyridin-4-yl-isoquinolin-8-ylmethyl]-carbamic acid prop-2-ynyl ester]
0.5 µg/mL (≈ 1.1 µM)	CCNC(=O)Nc1cc2c(-c3ccncc3)ccc(CNC(=O)OCc3cccnc3)c2cn1 [Example 42, [3-(3-ethyl-ureido)-5-pyridin-4-yl-isoquinolin-8-ylmethyl]-carbamic acid pyridin-3-ylmethyl ester]
4 µg/mL (≈ 12.7 µM)	CCNC(=O)NCc1cccc2cc(NC(=O)NCC)ncc12 [Example 43, 1-ethyl-3-{8-[(3-ethyl-ureido)-methyl]isoquinolin-3-yl}-urea]
2 µg/mL (≈ 4.19 µM)	CCNC(=O)Nc1cc2c(-c3ccncc3)ccc(CNC(=O)CCC(=O)OC(C)(C)C)c2cn1 [Example 46, N-[3-(3-ethyl-ureido)-5-pyridin-4-yl-isoquinolin-8-ylmethyl]-succinamic acid tert-butyl ester]
1 µg/mL (≈ 2.09 µM)	CCNC(=O)Nc1cc2c(-c3ccncc3)ccc(CNC(=O)CNC(=O)OC(C)(C)C)c2cn1 [Example 47, ({[3-(3-ethyl-ureido)-5-pyridin-4-yl-isoquinolin-8-ylmethyl]-carbamoyl}-methyl)-carbamic acid tert-butyl ester]
2 µg/mL (≈ 4.06 µM)	CCNC(=O)Nc1cc2c(-c3ccncc3)ccc(CNC(=O)CN(C)C(=O)OC(C)(C)C)c2cn1 [Example 48, ({[3-(3-ethyl-ureido)-5-pyridin-4-yl-isoquinolin-8-ylmethyl]-carbamoyl}-methyl)-methyl-carbamic acid tert-butyl ester]
4 µg/mL	CCNC(=O)Nc1cc2c(-c3ccncc3)ccc(CNC(=O)CN)c2cn1.Cl [Example 50, 2-amino-N-[3-(3-ethyl-ureido)-5-pyridin-4-yl-isoquinolin-8-ylmethyl]-acetamide hydrochloride]
2 µg/mL (≈ 4.92 µM)	CCNC(=O)Nc1cc2c(-c3ccncc3)ccc(CNC(=O)CC(N)=O)c2cn1 [Example 52, N-[3-(3-ethyl-ureido)-5-pyridin-4-yl-isoquinolin-8-ylmethyl]-malonamide]
4 µg/mL (≈ 9.51 µM)	CCNC(=O)Nc1cc2c(-c3ccncc3)ccc(CNC(=O)CCC(N)=O)c2cn1 [Example 54, N-[3-(3-ethyl-ureido)-5-pyridin-4-yl-isoquinolin-8-ylmethyl]-succinamide]
8 µg/mL (≈ 18.4 µM)	CCNC(=O)Nc1cc2c(-c3ccncc3)ccc(CNC(=O)CCC(=O)NC)c2cn1 [Example 55, N-[3-(3-ethyl-ureido)-5-pyridin-4-yl-isoquinolin-8-ylmethyl]-N′-methyl-succinamide]
0.5 µg/mL (≈ 1.24 µM)	CCNC(=O)Nc1cc2c(-c3ccncc3)ccc(CNC(=O)CC3CC3)c2cn1 [Example 57, 2-cyclopropyl-N-[3-(3-ethyl-ureido)-5-pyridin-4-yl-isoquinolin-8-ylmethyl]-acetamide]
8 µg/mL (≈ 18.6 µM)	CCNC(=O)Nc1cc2c(-c3ccncc3)ccc(CNC(=O)Cc3c[nH]cn3)c2cn1 [Example 60, N-[3-(3-ethyl-ureido)-5-pyridin-4-yl-isoquinolin-8-ylmethyl]-2-(1H-imidazol-4-yl)-acetamide]
1 µg/mL (≈ 1.92 µM)	CCNC(=O)Nc1cc2c(-c3ccncc3)ccc(CNC(=O)CCCN(C)C(=O)OC(C)(C)C)c2cn1 [Example 62, (3-{[3-(3-ethyl-ureido)-5-pyridin-4-yl-isoquinolin-8-ylmethyl]-carbamoyl}propyl)-methyl-carbamic acid tert-butyl ester]
1 µg/mL (≈ 2.45 µM)	CCNC(=O)Nc1cc2c(-c3ccncc3)ccc(CNC(=O)CCOC)c2cn1 [Example 63, N-[3-(3-ethyl-ureido)-5-pyridin-4-yl-isoquinolin-8-ylmethyl]-3-methoxy-propionamide]
0.25 µg/mL (≈ 0.642 µM)	CCNC(=O)Nc1cc2c(-c3ccncc3)ccc(CNC(=O)C3CC3)c2cn1 [Example 65, cyclopropanecarboxylic acid [3-(3-ethyl-ureido)-5-pyridin-4-yl-isoquinolin-8-ylmethyl]-amide]
0.25 µg/mL (≈ 0.617 µM)	CCNC(=O)Nc1cc2c(-c3ccncc3)ccc(CNC(=O)CC(C)C)c2cn1 [Example 66, N-[3-(3-ethyl-ureido)-5-pyridin-4-yl-isoquinolin-8-ylmethyl]-3-methyl-butyramide]
0.5 µg/mL (≈ 1.28 µM)	CCNC(=O)Nc1cc2c(-c3ccncc3)ccc(CNC(=O)C(C)C)c2cn1 [Example 67, N-[3-(3-ethyl-ureido)-5-pyridin-4-yl-isoquinolin-8-ylmethyl]-isobutyramide]
4 µg/mL (≈ 10.2 µM)	CCNC(=O)Nc1cc2c(-c3ccncc3)ccc(CNC(=O)CCO)c2cn1 [Example 68, N-[3-(3-ethyl-ureido)-5-pyridin-4-yl-isoquinolin-8-ylmethyl]-3-hydroxy-propionamide]
